# Read-outs that look alike come from different tables or passages of the source.
# Legend:
# Format in all cases: cell-based
# A. anitratus ATCC 19606 = test: Broth microdilution MIC, ATCC strains; conditions: Acinetobacter calcoaceticus, ATCC19606; A. anitratus ATCC 19606; read-out: MIC (growth inhibition, microdilution method)
# From the text: (§1) All clinical isolates tested were from The North American Urinary Tract Infection Collaborative Alliance (NAUTICA) which is a UTI surveillance study involving 40 medical centres (30 from the US and 10 from Canada). Each centre submitted up to 50 consecutive outpatient midstream urine isolates. All isolates were deemed significant urinary tract pathogens by individual laboratory criteria and identified to the species level by each laboratory's existing protocol. Isolates were transported to the coordinating laboratory (Health Sciences Centre, Winnipeg, Canada) on charcoal swabs. Only one isolate per patient was accepted. Upon receipt, isolates were cultured by the coordinating laboratory, stocked in skim milk, and stored at −80° C. awaiting reference antibiotic susceptibility testing. Elementary demographic information was also compiled for each isolate. Isolates were selected randomly from the above pool to represent 18 different species of Enterobacteriaceae and non-Enterobacteriaceae. An average of 5 strains of each species were tested for a total of 93 organisms. In addition, 23 reference (ATCC) [both gram negative and gram positive] strains were tested.
# (§2) Susceptibilities to the compounds were determined using the National Committee for Clinical Laboratory Standards (NCCLS) M7-A6 broth microdilution method. […] DMSO controls were incorporated into the panel to mimic the quantity of DMSO used in dissolving some of the compounds at the higher concentrations. Each final panel well volume was 100 μl with a bacterial inoculum of 5×10^5 colony forming units (CFU)/ml. Panels were read following 16 to 20 hours of incubation at 35° C. in ambient air. The minimum inhibitory concentration (MIC) was defined as the lowest concentration of antimicrobial inhibiting visible growth. Quality control (QC) was performed using four ATCC QC organisms that were run with every batch set up to insure reproducibility.
# B. cepacia ATCC 25416 = test: Broth microdilution MIC, ATCC strains; conditions: Burkholderia cepacia, ATCC25416; B. cepacia ATCC 25416; read-out: MIC (growth inhibition, microdilution method)
# From the text: as §1, §2
# E. aerogenes ATCC 13048 = test: Broth microdilution MIC, ATCC strains; conditions: Klebsiella aerogenes, ATCC13048, read-out: MIC (growth inhibition, microdilution method)
# From the text: as §1, §2
# E. cloacae ATCC 23355 = test: Broth microdilution MIC, ATCC strains; conditions: Enterobacter cloacae, ATCC23355, read-out: MIC (growth inhibition, microdilution method)
# From the text: as §1, §2
# E. coli ATCC 25922 = test: Broth microdilution MIC, ATCC strains; conditions: Escherichia coli
# From the text: as §1, §2
# K. oxytoca ATCC 49131 = test: Broth microdilution MIC, ATCC strains; conditions: Klebsiella oxytoca, ATCC49131, read-out: MIC (growth inhibition, microdilution method)
# From the text: as §1, §2
# K. pneumoniae ATCC 13883 = test: Broth microdilution MIC, ATCC strains; conditions: Klebsiella pneumoniae, ATCC13883, read-out: MIC (growth inhibition, microdilution method)
# From the text: as §1, §2
# P. mirabilis ATCC 29245 = test: Broth microdilution MIC, ATCC strains; conditions: Proteus mirabilis, ATCC29245, read-out: MIC (growth inhibition, microdilution method)
# From the text: as §1, §2
# [1] = system: Ps. aeruginosa ATCC 27853; test: Broth microdilution MIC, ATCC strains; conditions: Pseudomonas aeruginosa
# From the text: as §1, §2
# S. aureus ATCC 29213 = test: Broth microdilution MIC, ATCC strains; conditions: Staphylococcus aureus, ATCC29213, read-out: MIC (growth inhibition, microdilution method)
# From the text: as §1, §2
# [2] = system: S. liquefaciens ATCC 27592; test: Broth microdilution MIC, ATCC strains; conditions: read-out: MIC (growth inhibition, microdilution method)
# From the text: as §1, §2
# [3] = system: S. saprophyticus ATCC 15305; test: Broth microdilution MIC, ATCC strains; conditions: Staphylococcus saprophyticus, ATCC15305, read-out: MIC (growth inhibition, microdilution method)
# From the text: as §1, §2
# P. rettgeri CAP = test: Broth microdilution MIC, reference strains; conditions: Providencia rettgeri, read-out: MIC (growth inhibition, microdilution method)
# From the text: as §1, §2
# [4] = system: C. amalonaticus clinical isolates; test: Broth microdilution MIC, clinical isolate strains (NAUTICA); conditions: clinical isolates, one table line per isolate; unit assumed
# From the text: as §1, §2
# [5] = system: C. freundii clinical isolates; test: as above; conditions: clinical isolates, one table line per isolate; in µg/mL (unit assumed)
# From the text: as §1, §2
# [6] = system: C. koseril clinical isolates; test: as above; conditions: clinical isolates, one table line per isolate; unit assumed
# From the text: as §1, §2
# [7] = system: E. aerogenes clinical isolates; test: as above; conditions: clinical isolates, one table line per isolate; unit assumed
# From the text: as §1, §2
# [8] = system: E. cloacae clinical isolates; test: as above; conditions: clinical isolates, one table line per isolate; unit assumed
# From the text: as §1, §2
# [9] = system: K. oxytoca clinical isolates; test: as above; conditions: clinical isolates, one table line per isolate; unit assumed
# From the text: as §1, §2
# [10] = system: K. pneumoniae clinical isolates; test: as above; conditions: clinical isolates, one table line per isolate; unit assumed
# From the text: as §1, §2
# [11] = system: M. morganii clinical isolates; test: as above; conditions: clinical isolates, one table line per isolate; unit assumed
# From the text: as §1, §2
# [12] = system: P. mirabilis clinical isolates; test: as above; conditions: clinical isolates, one table line per isolate; unit assumed
# From the text: as §1, §2
# [13] = system: P. vulgaris clinical isolates; test: as above; conditions: clinical isolates, one table line per isolate; unit assumed
# From the text: as §1, §2
# [14] = system: S. liquifaciens clinical isolates; test: as above; conditions: clinical isolates, one table line per isolate; unit assumed
# From the text: as §1, §2
# [15] = system: S. marcescens clinical isolates; test: as above; conditions: clinical isolates, one table line per isolate; unit assumed
# From the text: as §1, §2
# [16] = system: B. cepacia clinical isolates; test: as above; conditions: clinical isolates, one table line per isolate; unit assumed
# From the text: as §1, §2
# [17] = system: E. coli clinical isolates; test: as above; conditions: clinical isolates, one table line per isolate; unit assumed
# From the text: as §1, §2
# [18] = system: P. retgerri clinical isolates; test: as above; conditions: clinical isolates, one table line per isolate; unit assumed
# From the text: as §1, §2
# [19] = ATCC25922, read-out: MIC (growth inhibition, microdilution method)
# [20] = ATCC27853, read-out: MIC (growth inhibition, microdilution method), Ps. aeruginosa ATCC 27853
# [21] = ATCC27853, Ps. aeruginosa ATCC 27853, read-out: MIC (growth inhibition, microdilution method)
Structure (SMILES),MIC (A. anitratus ATCC 19606) [µg/mL],MIC (B. cepacia ATCC 25416) [µg/mL],MIC (E. aerogenes ATCC 13048) [µg/mL],MIC (E. cloacae ATCC 23355) [µg/mL],MIC (E. coli ATCC 25922; [19]) [µg/mL],MIC (K. oxytoca ATCC 49131) [µg/mL],MIC (K. pneumoniae ATCC 13883) [µg/mL],MIC (P. mirabilis ATCC 29245) [µg/mL],"MIC [1, 20] [µg/mL]","MIC [1, 21] [µg/mL]",MIC (S. aureus ATCC 29213) [µg/mL],MIC [2] [µg/mL],MIC [3] [µg/mL],MIC (P. rettgeri CAP) [µg/mL],"MIC, C. AMALONATICUS [4] [µg/mL]","MIC, C. FREUNDII [5]","MIC, C. KOSERI [6] [µg/mL]","MIC, E. AEROGENES [7] [µg/mL]","MIC, E. CLOACAE [8] [µg/mL]","MIC, K. OXYTOCA [9] [µg/mL]",also measured
"O=C(O)c1cc(-c2nnn[nH]2)c(C(=O)O)s1 [DNM-111, 3-(1H-tetrazol-5-yl)thiophene-2,5-dicarboxylic acid]",64,64,128,128,128,128,128,128,128,64,128,128,128,128,128,128,128,128,128,128,"MIC (E. coli ATCC 25922; ATCC25922, E. coli ATCC 25922, read-out: MIC (growth inhibition, microdilution method)): 64 µg/mL; MIC, K. PNEUMONIAE [10]: 128 µg/mL; MIC, M. MORGANII [11]: 128 µg/mL; MIC, P. MIRABILIS [12]: 128 µg/mL; MIC, P. VULGARIS [13]: 128 µg/mL; MIC, S. LIQUEFACIENS [14]: 128 µg/mL; MIC, S. MARCESCENS [15]: 128 µg/mL"
"COC(=O)c1cc(-c2nnn(C)n2)c(C(=O)OC)s1 [DNM-114, 3-(2-methyl-2H-tetrazol-5-yl)-thiophene-2,5-dicarboxylic acid dimethyl ester]",64,64,128,128,128,128,128,128,128,64,128,128,128,128,128,128,128,128,128,128,"MIC, B. CEPACIA [16]: 64 µg/mL; MIC, E. COLI [17]: 128 µg/mL; MIC, K. PNEUMONIAE [10]: 128 µg/mL; MIC, M. MORGANII [11]: 128 µg/mL; MIC, P. MIRABILIS [12]: 128 µg/mL; MIC, P. RETTGERI [18]: 128 µg/mL; MIC, P. VULGARIS [13]: 128 µg/mL; MIC, S. LIQUEFACIENS [14]: 128 µg/mL; MIC, S. MARCESCENS [15]: 128 µg/mL"

# — patent US8835476B2, “Synthesis of novel antimicrobials” (priority 2005, dated 2014)
